pEC50: −log10 of the molar value.
Biological target: AMPK
Assay: AMPK activation, enzyme-linked immunosorbent assay
Assay type: biochemical
Details: EC50 for AMPK activation, ELISA
Method in brief: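 Read-out: immunodetected kinase activation after compound exposure, run with commercial kit reagents.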

Row | Compound | pEC50
1 | COc1ccc(OC2CCN(C(=O)c3ccc(C(=O)NC4CCN(Cc5ccc(C#N)cc5)CC4)cn3)CC2)c(NC(=O)CCOCCOCCOCCOCCNC(=O)CCCC[C@@H]2SC[C@@H]3NC(=O)N[C@@H]32)c1 [Compound 394, N-(1-(4-cyanobenzyl)piperidin-4-yl)-6-(4-(4-methoxy-2-(17-oxo-21-((3aS,4S,6aR)-2-oxohexahydro-1H-thieno[3,4-d]imidazol-4-yl)-4,7,10,13-tetraoxa-16-azahenicosanamido)phenoxy)piperidine-1-carbonyl)nicotinamide] | < 5.00
2 | COc1ccc(CN2CCC(NC(=O)c3ccc(C(=O)N4CCC(C(=O)c5ccc(OC)cc5)CC4)nc3)CC2)cc1 [Compound 318, 6-(4-(4-methoxybenzoyl)piperidine-1-carbonyl)-N-(1-(4-methoxybenzyl)piperidin-4-yl)nicotinamide] | > 6.30
3 | COc1ccc(CN2CCC(NC(=O)c3ccc(C(=O)N4CCC(C(=O)c5ccc(S(C)(=O)=O)cc5)CC4)cn3)CC2)cc1 [Compound 234, N-(1-(4-methoxybenzyl)piperidin-4-yl)-5-(4-(4-(methylsulfonyl)benzoyl)piperidine-1-carbonyl)picolinamide] | > 6.30
4 | CC(C)(C)OC(=O)NCCCc1cc(C(=O)N2CCN(Cc3ccc(F)cc3)CC2)cnc1C(=O)NC1CCN(Cc2ccc(C#N)cc2)CC1 [Compound 290, tert-butyl 3-(2-(1-(4-cyanobenzyl)piperidin-4-ylcarbamoyl)-5-(4-(4-fluorobenzyl)piperazine-1-carbonyl)pyridin-3-yl)propylcarbamate] | > 6.30
5 | CC(=O)Nc1ccc(OC2CCN(C(=O)c3ccc(C(=O)NC4CCN(Cc5ccc(F)cc5)CC4)cn3)CC2)cc1 [Compound 406, 6-(4-(4-acetamidophenoxy)piperidine-1-carbonyl)-N-(1-(4-fluorobenzyl)piperidin-4-yl)nicotinamide] | 6.00 to 6.30
6 | N#Cc1ccc(CN2CCC(NC(=O)c3ccc(N4CCC(C(=O)c5ccc(Cl)cc5)CC4)cn3)CC2)cc1 [Compound 266, 5-(4-(4-chlorobenzoyl)piperidin-1-yl)-N-(1-(4-cyanobenzyl)piperidin-4-yl)picolinamide] | > 6.30
7 | CS(=O)(=O)c1ccc(OC2CCN(C(=O)c3ccc(C(=O)Nc4ccc(Oc5ccc(C#N)cc5)nc4)cn3)CC2)cc1 [Compound 459, N-(6-(4-cyanophenoxy)pyridin-3-yl)-6-(4-(4-(methylsulfonyl)phenoxy)piperidine-1-carbonyl)nicotinamide] | > 6.30
8 | CS(=O)(=O)c1ccc(Oc2ccc(NC(=O)c3ccc(C(=O)N4CCC(C(=O)c5ccc(F)cc5F)CC4)nc3)cn2)cc1 [Compound 466, 6-(4-(2,4-difluorobenzoyl)piperidine-1-carbonyl)-N-(6-(4-(methylsulfonyl)phenoxy)pyridin-3-yl)nicotinamide] | > 6.30
9 | CS(=O)(=O)c1ccc(OC2CCN(C(=O)c3ccc(C(=O)NC4CCN(Cc5cc(F)cc(F)c5)CC4)nc3)CC2)cc1 [Compound 203, N-(1-(3,5-difluorobenzyl)piperidin-4-yl)-5-(4-(4-(methylsulfonyl)phenoxy)piperidine-1-carbonyl)picolinamide] | > 6.30
10 | N#Cc1ccc(CN2CCC(NC(=O)c3ccc(C(=O)N4CCN(c5ccc(F)cc5)CC4)cn3)CC2)cc1 [Compound 341, N-(1-(4-cyanobenzyl)piperidin-4-yl)-5-(4-(4-fluorophenyl)piperazine-1-carbonyl)picolinamide] | > 6.30
11 | COc1ccc(-c2ccc(Nc3ccc(C(=O)NC4CCN(Cc5ccccc5)CC4)nc3)cc2)cc1 [Compound 120, N-(1-benzylpiperidin-4-yl)-5-(4′-methoxybiphenyl-4-ylamino)picolinamide] | < 5.00
12 | COc1ccc(C(=O)C2CCN(C(=O)c3ccc(C(=O)N[C@H]4CCN(Cc5ccc(C#N)cc5)C[C@H]4F)cn3)CC2)cc1 (relative stereo) [Compound 454, N-((cis)-1-(4-cyanobenzyl)-3-fluoropiperidin-4-yl)-6-(4-(4-methoxybenzoyl)piperidine-1-carbonyl)nicotinamide] | > 6.30
13 | N#Cc1ccc(-c2nnc3n2CCN(C(=O)c2ccc(C(=O)NC4CCN(Cc5cc(F)cc(F)c5)CC4)nc2)C3)cc1 [Compound 314, 5-(3-(4-cyanophenyl)-5,6,7,8-tetrahydro-[1,2,4]triazolo[4,3-a]pyrazine-7-carbonyl)-N-(1-(3,5-difluorobenzyl)piperidin-4-yl)picolinamide] | < 5.00
14 | COc1cccc(CN2CCC(NC(=O)c3ccc(C(=O)N4CCC(Oc5ccc(S(C)(=O)=O)cc5)CC4)nc3)CC2)c1 [Compound 238, N-(1-(3-methoxybenzyl)piperidin-4-yl)-6-(4-(4-(methylsulfonyl)phenoxy)piperidine-1-carbonyl)nicotinamide] | 5.30 to 6.00
15 | CS(=O)(=O)c1ccc(OC2CCN(C(=O)c3ccc(C(=O)NC4CCN(Cc5ccc(F)cc5)CC4)cn3)CC2)cc1 [Compound 396, N-(1-(4-fluorobenzyl)piperidin-4-yl)-6-(4-(4-(methylsulfonyl)phenoxy)piperidine-1-carbonyl)nicotinamide] | 5.30 to 6.00
16 | CC(=O)c1ccc(OC2CCN(C(=O)c3ccc(C(=O)NC4CCN(Cc5ccc(C#N)cc5)CC4)nc3)CC2)cc1 [Compound 358, 5-(4-(4-acetylphenoxy)piperidine-1-carbonyl)-N-(1-(4-cyanobenzyl)piperidin-4-yl)picolinamide] | > 6.30

Row | Compound | pEC50
17 | N#Cc1ccc(CC2CCN(C(=O)c3ccc(C(=O)NC4CCN(Cc5ccc(C#N)cc5)CC4)nc3)CC2)cc1 [Compound 128, N-(1-(4-cyanobenzyl)piperidin-4-yl)-5-(4-(4-cyanobenzyl)piperidine-1-carbonyl)picolinamide] | > 6.30
18 | N#Cc1ccc(CN2CCC(NC(=O)c3ccc(C(=O)N4CCC(Oc5ccc(N)cc5)CC4)nc3)CC2)cc1 [Compound 364, 6-(4-(4-aminophenoxy)piperidine-1-carbonyl)-N-(1-(4-cyanobenzyl)piperidin-4-yl)nicotinamide] | > 6.30
19 | CC(=O)c1ccc(OC2CCN(C(=O)c3ccc(C(=O)NC4CCN(Cc5ccc(F)cc5)CC4)cn3)CC2)cc1 [Compound 391, 6-(4-(4-acetylphenoxy)piperidine-1-carbonyl)-N-(1-(4-fluorobenzyl)piperidin-4-yl)nicotinamide] | > 6.30
20 | N#Cc1ccc(CN2CCC(NC(=O)c3ccc(N4CCN(Cc5ccc(F)cc5)CC4)nn3)CC2)cc1 [Compound 491, N-(1-(4-cyanobenzyl)piperidin-4-yl)-6-(4-(4-fluorobenzyl)piperazin-1-yl)pyridazine-3-carboxamide] | 5.30 to 6.00
21 | O=C(NC1CCN(Cc2ccc(F)cc2)CC1)c1ccc(C(=O)N2CCC(C(=O)c3ccc(F)cc3)CC2)cn1 [Compound 181, 5-(4-(4-fluorobenzoyl)piperidine-1-carbonyl)-N-(1-(4-fluorobenzyl)piperidin-4-yl)picolinamide] | > 6.30
22 | N#Cc1ccc(OC2CCN(C(=O)c3ccc(C(=O)N[C@H]4CC[C@@H](Oc5ccc(F)cc5)CC4)cn3)CC2)cc1 [Compound 324, 6-(4-(4-cyanophenoxy)piperidine-1-carbonyl)-N-((cis)-4-(4-fluorophenoxy)cyclohexyl)nicotinamide] | > 6.30
23 | COc1ccc(CN2CCC(NC(=O)c3ccc(C(=O)N4CCC(Oc5cccc(NC(=O)C6CC6)c5)CC4)nc3)CC2)cc1 [Compound 435, 6-(4-(3-(cyclopropanecarboxamido)phenoxy)piperidine-1-carbonyl)-N-(1-(4-methoxybenzyl)piperidin-4-yl)nicotinamide] | > 6.30
24 | O=C(Nc1ccc(Br)cc1)c1ccc(C(=O)N2CCN(Cc3ccc(F)cc3)CC2)cn1 [Compound 28, N-(4-bromophenyl)-5-(4-(4-fluorobenzyl)piperazine-1-carbonyl)picolinamide] | 6.00 to 6.30
25 | O=C(Nc1ccc(Oc2ccc(F)cc2)nc1)c1ccc(C(=O)N2CCC(Oc3ccc(F)cc3)CC2)cn1 [Compound 273, 5-(4-(4-fluorophenoxy)piperidine-1-carbonyl)-N-(6-(4-fluorophenoxy)pyridin-3-yl)picolinamide] | > 6.30
26 | CS(=O)(=O)c1ccc(C(=O)C2CCN(C(=O)c3ccc(C(=O)Nc4ccc(Oc5ccc(F)cc5)nc4)cn3)CC2)cc1 [Compound 224, N-(6-(4-fluorophenoxy)pyridin-3-yl)-6-(4-(4-(methylsulfonyl)benzoyl)piperidine-1-carbonyl)nicotinamide] | > 6.30
27 | N#Cc1ccc(CN2CCC(NC(=O)c3ccc(C(=O)N4CCC(Oc5ccc(F)c(F)c5)CC4)cn3)CC2)cc1 [Compound 158, N-(1-(4-cyanobenzyl)piperidin-4-yl)-5-(4-(3,4-difluorophenoxy)piperidine-1-carbonyl)picolinamide] | > 6.30
28 | N#Cc1ccc(CN2CCC(NC(=O)c3ccc(C(=O)N4CCC(Oc5ccc(SC(F)(F)F)cc5)CC4)cn3)CC2)cc1 [Compound 410, N-(1-(4-cyanobenzyl)piperidin-4-yl)-5-(4-(4-(trifluoromethylthio)phenoxy)piperidine-1-carbonyl)picolinamide] | > 6.30
29 | COc1ccc(CN2CCC(NC(=O)c3ccc(C(=O)N4CCC(Oc5ccc(NC(C)=O)cc5)CC4)nc3)CC2)cc1 [Compound 407, 6-(4-(4-acetamidophenoxy)piperidine-1-carbonyl)-N-(1-(4-methoxybenzyl)piperidin-4-yl)nicotinamide] | > 6.30
30 | N#Cc1ccc(-c2ccc(Nc3ccc(C(=O)NC4CCN(Cc5ccccc5)CC4)nc3)cc2)cc1 [Compound 119, N-(1-benzylpiperidin-4-yl)-5-(4′-cyanobiphenyl-4-ylamino)picolinamide] | 5.30 to 6.00
31 | O=C(NC1CCN(C(=O)C2CCCCC2)CC1)c1ccc(C(=O)N2CCN(Cc3ccc(F)cc3)CC2)cn1 [Compound 7, N-(1-(cyclohexanecarbonyl)piperidin-4-yl)-5-(4-(4-fluorobenzyl)piperazine-1-carbonyl)picolinamide] | > 6.30
32 | CS(=O)(=O)c1ccc(C(=O)C2CCN(C(=O)c3ccc(C(=O)N[C@@H]4CCN(Cc5ccc(C#N)cc5)C[C@H]4F)nc3)CC2)cc1 (relative stereo) [Compound 252, N-((trans)-1-(4-cyanobenzyl)-3-fluoropiperidin-4-yl)-5-(4-(4-(methylsulfonyl)benzoyl)piperidine-1-carbonyl)picolinamide] | 6.00 to 6.30

— patent US9663496B2, “AMPK-activating heterocyclic compounds and methods for using the same” (Rigel Pharmaceuticals, Inc., priority 2010, dated 2017)
